Laboratory results as given in patent publication US20230012368A1 (Hoffmann-La Roche Inc., priority 2018, published 2023).
Counter-ions that a name gives are not always drawn.

tested on: Acinetobacter baumannii ATCC 17978; assay: Antimicrobial susceptibility testing: 90% growth inhibitory concentration (IC90) determination; assay type: cell-based; details: 90% growth inhibitory concentration; Acinetobacter baumannii ATCC17978; Iso-Sensitest broth, OD 600 nm over 16h; read-out: ATCC17978 IC90
Method in brief: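 Compounds serially twofold diluted (e.g. 50 to 0.097 μM final) in Iso-Sensitest broth, inoculated at ~5×10^(5) CFU/ml, incubated at 35±2° C. OD600 read every 20 minutes over 16h. IC90 taken as concentration inhibiting 90% of growth during logarithmic phase.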

SMILES | IC90
COc1ccc(-c2cnc3c(Nc4ccc(C(=O)N(C)CC5CCOCC5)c(Cl)c4)nccn23)c(F)c1F [Example 41, 2-chloro-4-[[3-(2,3-difluoro-4-methoxy-phenyl)imidazo[1,2-a]pyrazin-8-yl]amino]-N-methyl-N-(tetrahydropyran-4-ylmethyl)benzamide; 2,2,2-trifluoroacetic acid] | 620 nM
COc1ccc(-c2cnc3c(Nc4ccc(C(=O)NCCC5CCN(C)CC5)c(C)c4)nccn23)cc1 [Example 195, 4-[[3-(4-methoxyphenyl)imidazo[1,2-a]pyrazin-8-yl]amino]-2-methyl-N-[2-(1-methylpiperidin-4-yl)ethyl]benzamide;hydrochlo-ride] | 360 nM
CCc1cc(Nc2nccn3c(-c4ccc(OC)c(F)c4F)cnc23)ccc1C(=O)N[C@@H](CN)C(=O)OC [Example 308, methyl (2S)-3-amino-2-[[4-[[3-(2,3-difluoro-4-methoxyphenyl)imidazo[1,2-a]pyrazin-8-yl]amino]-2-ethylbenzoyl]amino]propanoate; hydrochloride] | 660 nM
CCc1cc(Nc2nccn3c(-c4ccc(OC(F)F)c(F)c4F)cnc23)ccc1C(=O)NC(CCN)C(F)F (stereo not shown) [Example 315, N-(4-amino-1,1-difluorobutan-2-yl)-4-[[3-[4-(difluoromethoxy)-2,3-difluorophenyl]imidazo[1,2-a]pyrazin-8-yl]amino]-2-ethylbenzamide; hydrochloride] | 1300 nM
COc1ccc(-c2cnc3c(Nc4ccc(C(=O)N(C)CC5CCOCC5)c(C)c4)nccn23)cc1F [Example 35, 4-[[3-(3-fluoro-4-methoxy-phenyl)imidazo[1,2-a]pyrazin-8-yl]amino]-N,2-dimethyl-N-(tetrahydropyran-4-ylmethyl)benzamide; 2,2,2-trifluoroacetic acid] | 1200 nM
CCc1cc(Nc2nccn3c(-c4ccc(Oc5ncccn5)c(F)c4F)cnc23)ccc1C(=O)NCCNC(=O)[C@@H](N)CCNC(=N)N [Example 438, N-[2-[[(2S)-2-amino-4-guanidino-butanoyl]amino]ethyl]-4-[[3-(2,3-difluoro-4-pyrimidin-2-yloxy-phenyl)imidazo[1,2-a]pyrazin-8-yl]amino]-2-ethyl-benzamide; formic acid] | 550 nM
CCc1cc(Nc2nccn3c(-c4ccc(Oc5ncccn5)c(F)c4F)cnc23)ccc1C(=O)NCCNC(=O)[C@H](N)CCNC(=N)N [Example 439, N-[2-[[(2R)-2-amino-4-guanidino-butanoyl]amino]ethyl]-4-[[3-(2,3-difluoro-4-pyrimidin-2-yloxy-phenyl)imidazo[1,2-a]pyrazin-8-yl]amino]-2-ethyl-benzamide; formic acid] | 340 nM

same assay, conditions: Acinetobacter baumannii, ATCC17978, 16 h, 90% growth inhibitory concentration; Acinetobacter baumannii ATCC17978; Iso-Sensitest broth, OD 600 nm over 16h; read-out: ATCC17978 IC90

SMILES | IC90
Cc1cc(Nc2nccn3c(-c4ccc(OC(F)F)cc4)cnc23)ccc1C(=O)N(C)CCN(C)C [Example 50, 4-((3-(4-(difluoromethoxy)phenyl)imidazo[1,2-a]pyrazin-8-yl)amino)-N-(2-(dimethylamino)ethyl)-N,2-dimethylbenzamide] | 4300 nM
CNC(=O)c1ccc(Nc2nccn3c(-c4ccc(OC(F)F)cc4)cnc23)cc1Cl [Example 110, 2-chloro-4-((3-(4-(difluoromethoxy)phenyl)imidazo[1,2-a]pyrazin-8-yl)amino)-N-methylbenzamide] | 250 nM
Cc1cc(Nc2nccn3c(-c4ccc(OC(F)F)cc4)cnc23)ccc1C(=O)N(C)CCCCN1CCOCC1 [Example 208, 4-[[3-[4-(difluoromethoxy)phenyl]im-idazo[1,2-a]pyrazin-8-yl]amino]-N,2-dimethyl-N-(4-morpholin-4-ylbutyl)benzamide] | 580 nM
Cc1cc(Nc2nccn3c(-c4ccc(OC(F)F)cc4)cnc23)ccc1C(=O)NC(C)(C)CN1CCOCC1 [Example 222, 4-[[3-[4-(difluoromethoxy)phenyl]im-idazo[1,2-a]pyrazin-8-yl]amino]-2-methyl-N-(2-methyl-1-morpholin-4-ylpropan-2-yl)benzamide] | 1100 nM
CNC(=O)c1ccc(Nc2nccn3c(-c4ccc(OC(F)F)cc4)cnc23)cc1Br [Example 93, 2-bromo-4-((3-(4-(difluoromethoxy)phenyl)imidazo[1,2-a]pyrazin-8-yl)amino)-N-methylbenzamide] | 200 nM
CN(CCN1CCNCC1)C(=O)c1ccc(Nc2nccn3c(-c4ccc(OC(F)F)cc4)cnc23)cc1Cl [Example 203, 2-chloro-4-[[3-[4-(difluoromethoxy)phenyl]im-idazo[1,2-a]pyrazin-8-yl]amino]-N-methyl-N-(2-piperazin-1-ylethyl)benzamide; hydrochlo-ride] | 460 nM
COc1ccc(-c2cnc3c(Nc4ccc(C(=O)N(CCN5CCNCC5)CC(F)(F)F)c(C)c4)nccn23)cc1F [Example 172, 4-[[3-(3-fluoro-4-methoxyphenyl)imidazo[1,2-a]pyrazin-8-yl]amino]-2-methyl-N-(2-piperazin-1-ylethyl)-N-(2,2,2-trifluoroethyl)benzamide; hy-drochloride] | 6200 nM

The next lines start with the values.

IC90 | SMILES
510 nM | COc1ccc(-c2cnc3c(Nc4ccc(C(=O)N(C)CCOn5nnc6cccnc65)c(C)c4)nccn23)cc1F [Example 305, 4-[[3-(3-fluoro-4-methoxyphenyl)imidazo[1,2-a]pyrazin-8-yl]amino]-N,2-dimethyl-N-[2-(triazolo[4,5-b]pyridin-3-yloxy)ethyl]benzamide]
80 nM | COc1ccc(-c2cnc3c(Nc4ccc(C(=O)N5CCN(C(=O)[C@@H]6C[C@@](C)(O)CN6)CC5)c(C)c4)nccn23)c(F)c1F [Example 362, [4-[[3-(2,3-difluoro-4-methoxyphenyl)imidazo[1,2-a]pyrazin-8-yl]amino]-2-methylphenyl]-[4-[(2S,4R)-4-hydroxy-4-methylpyrrolidine-2-carbonyl]piperazin-1-yl]methanone]
1300 nM | COc1ccc(-c2cnc3c(Nc4ccc(C(=O)NCCCN5CCNC(C(=O)O)C5)c(Cl)c4)nccn23)c(F)c1F (stereo not shown) [Example 314, 4-[3-[[2-chloro-4-[[3-(2,3-difluoro-4-methoxyphenyl)imidazo[1,2-a]pyrazin-8-yl]amino]benzoyl]amino]pro-pyl]piperazine-2-carboxylic acid;formic acid]
1100 nM | CCc1cc(Nc2nccn3c(-c4ccc(OC)c(F)c4F)cnc23)ccc1C(=O)NCCN1CCC[C@H](N)C1=O [Example 347, N-[2-[(3S)-3-amino-2-oxopiperidin-1-yl]ethyl]-4-[[3-(2,3-difluoro-4-methoxyphenyl)imidazo[1,2-a]pyrazin-8-yl]amino]-2-ethylbenzamide]
250 nM | CCc1cc(Nc2nccn3c(-c4ccc(OC)c(F)c4F)cnc23)ccc1C(=O)NCC(N)CC (stereo not shown) [Example 523, N-(2-aminobutyl)-4-((3-(2,3-difluoro-4-methoxyphenyl)imidazo[1,2-a]pyrazin-8-yl)amino)-2-ethylbenzamide hydrochloride]
80 nM | COc1ccc(-c2cnc3c(Nc4ccc(C(=O)NCCCNC(=O)[C@@H]5C[C@](C)(O)CN5)c(C)c4)nccn23)c(F)c1F [Example 361, (2S,4S)-N-[3-[[4-[[3-(2,3-difluoro-4-methoxyphenyl)imidazo[1,2-a]pyrazin-8-yl]amino]-2-methylbenzoyl]amino]propyl]-4-hydroxy-4-methylpyrrolidine-2-carboxamide]
150 nM | CCc1cc(Nc2nccn3c(-c4ccc(OC)c(F)c4F)cnc23)ccc1C(=O)NCCNC(=O)[C@@H](N)CO [Example 373, N-[2-[[(2S)-2-amino-3-hydroxypropanoyl]amino]eth-yl]-4-[[3-(2,3-difluoro-4-methoxyphenyl)imidazo[1,2-a]pyrazin-8-yl]amino]-2-ethylbenzamide]
66 nM | CCc1cc(Nc2nccn3c(-c4ccc(OC)c(F)c4F)cnc23)ccc1C(=O)NCC1CCNCC1 [Example 543, 4-((3-(2,3-difluoro-4-methoxyphenyl)imidazo[1,2-a]pyrazin-8-yl)amino)-2-ethyl-N-(piperidin-4-ylmethyl)benzamide formate]
100 nM | N#CCOc1ccc(-c2cnc3c(Nc4ccc(C(=O)NCCCN5CCNCC5)c(Cl)c4)nccn23)c(F)c1F [Example 77, 2-chloro-4-((3-(4-(cyanomethoxy)-2,3-difluorophenyl)imidazo [1,2-a]pyrazin-8-yl)amino)-N-(3-(piperazin-1-yl)propyl)benzamide]
260 nM | C#CCCCNC(=O)c1ccc(Nc2nccn3c(-c4ccc(OC)c(F)c4F)cnc23)cc1CC [Example 481, 4-((3-(2,3-difluoro-4-methoxyphenyl)imidazo[1,2-a]pyrazin-8-yl)amino)-2-ethyl-N-(pent-4-yn-1-yl)benzamide]
3600 nM | Cc1cc(Nc2nccn3c(-c4ccc(Cl)c(F)c4F)cnc23)ccc1C(=O)N[C@@H](C)CN [Example 258, N-[(2S)-1-aminopropan-2-yl]-4-[[3-(4-chloro-2,3-difluorophenyl)imidazo[1,2-a]pyrazin-8-yl]amino]-2-methylbenzamide;hydrochlo-ride]
190 nM | CCc1cc(Nc2nccn3c(-c4ccc(Oc5ncccn5)c(F)c4F)cnc23)ccc1C(=O)NCCCCCN [Example 558, N-(5-aminopentyl)-4-((3-(2,3-difluoro-4-(pyrimidin-2-yloxy)phenyl)imidazo[1,2-a]pyrazin-8-yl)amino)-2-ethylbenzamide formate]
90 nM | CCc1cc(Nc2nccn3c(-c4ccc(OCC#N)c(F)c4Cl)cnc23)ccc1C(=O)NCCNC(=O)[C@H](N)CCCNC(=N)N [Example 127, N-[2-[[(2R)-2-amino-5-guanidino-pentanoyl]amino]ethyl]-4-[[3-[2-chloro-4-(cyanomethoxy)-3-fluoro-phenyl]imidazo[1,2-a]pyrazin-8-yl]amino]-2-ethyl-benzamide formate]
330 nM | CNC(=O)c1ccc(Nc2nccn3c(-c4ccc(OC(F)F)cc4)cnc23)cc1CCO [Example 190, 4-[[3-[4-(difluoromethoxy)phenyl]im-idazo[1,2-a]pyrazin-8-yl]amino]-2-(2-hydroxyethyl)-N-methylbenzamide]
